Data set [1] concerns GST-Mint1-PDZ1/2 protein. As to the kind of experiment: HTRF assay of bio-NC peptide association with GST-Mint1-PDZ1/2. Type of data set: binding. The conditions noted are these: 1000 nM with 1000 nM GST-Mint1-PDZ1/2. In general terms: Time-resolved FRET reads energy transfer from a long-lived donor to a nearby acceptor.
In data set [2] the test system is GST-Mint1-PDZ1/2 protein. The data set is described as follows: ALPHA (AlphaScreen) assay of bio-NC peptide association with GST-Mint1-PDZ1/2. Format: binding. Conditions: with GST-Mint1-PDZ-1/2, 189 nM concentration.
Data set [3] deals with mature hippocampal neuronal cultures. The data set is described as follows: FM1-43 imaging, double-staining protocol (synaptic function). Type of data set: cell-based. Conditions: neurons incubated with 50 μM peptide for 15 min; 90 mM KCl stimulation. The text has this: FIGS. 3A-D—Effects of R9-QDHWC peptides on synaptic function. Double-staining protocol is shown on the top. Results of first and second destaining are shown for representative puncta for control neurons (FIG. 3A), for neurons loaded with R9 peptide (FIG. 3B) and for neurons loaded with R9-QDHWC peptide (FIG. 3C). An average d2/d1 ratios are compared for all 3 groups of neurons (FIG. 3D).
An FM1-43 imaging was used to study synaptic effects of R9-QDHWC competitive peptide that corresponds to Mint-PDZ binding site on Cav2.2 subunit. In these experiments we adapted double-staining protocol from (Reuter, 1995). First the mature hippocampal neuronal cultures were stained with FM1-43 dye for 90 sec in the presence of 47 mM KCl (FIG. 3, top). Following staining and washout of the dye (10 min) the neurons were stimulated by 90 mM KCl and the initial rate of destaining (d1) was measured at each puncta (FIG. 3, top). After completion of the first destaining protocol, the same neuronal culture was re-stained with FM1-43 for 90 sec in the presence of 47 mM KCl. […] The initial rate of destaining (d2) was once again measured at each puncta (FIG. 3, top).
To compare the results obtained during first and second destaining protocols and to minimize puncta-to-puncta variability, the inventors calculated the d2/d1 ratios for each puncta.

Data set [4] has as its system formalin response. As to the kind of experiment: Formalin assay in rats after i.v. (tail vein) injection of peptide. Format: in vivo. Conditions: rat, tail vein injection 1 mM. On the procedure: FIG. 2—Supression of phase II, but not phase I formalin response in rats injected with R9-QDHWC peptide. The effect of i.v. administration of PBS, R9 (1 mM) or R9-QDHWC (1 mM) on phase I and phase II of the formalin assay. Phase I represents the period from 0-10 min following formalin injection and phase II represents the period from 11-60 min following formalin injection. N=4-7 rats per group. *** indicates a significant difference when compared to PBS injection (p<0.01).
As is shown in FIG. 2, the peptide R9-QDHWC (full sequence RRRRRRRRRQDHWC; SEQ ID NO_also inhibits phage II but not phase I responses in the rat formalin model. Male Sprague Dawley rats (175-225 gm) received a tail vein injection of either PBS, R9 (1 mM), or R9-QDHWC (1 mM) following which they were placed in a plexiglass observation chamber to allow for acclimation. Thirty minutes following the tail vein injection, the dorsal surface of one hind paw was injected with 50 ul of a 5% formalin solution. Observers, blind to drug treatment, scored the number of biting, licking, and scratching behaviors of the injected hindlimb and paw. Data were analyzed with SigmaStat Software (SPSS, Inc. v. 2.03) using ANOVA followed by a Tukey post hoc analysis.

For data set [5], the system named is formalin response. As to the kind of experiment: Formalin assay in mouse, test compound injected into the hindpaw. Conditions: hindpaw injection. Type of data set: in vivo. How it is done:
FIGS. 1A & 1B—Supression of phase II, but not phase I formalin response in mouse injected with R9-NC peptide. FIG. 1A. Sequence of R9-NC peptide. FIG. 1B. Results of formalin assay in control mouse (n=8) and mouse injected with R9-NC 60 min prior to formalin injection (n=8). Phase I response (1-10 min from formalin injection) and phase II response (11-60 min from formalin injection) are shown.
First, animals are injected with a 10 μM (20 μl) solution of the test compound (dissolved in PBS) in the dorsal surface of the hindpaw. One hour following the injection of the test compound, animals receive a formalin injection (20 μl of a 5% solution) into the dorsal surface of the hindpaw. The contralateral paw is not injected. Following injection, animals are immediately transferred to a plexiglass observation cage. Each animal is observed for a total of 60 minutes following formalin injection. The period spent biting, scratching, or licking the injected hindpaw is recorded (pain score). Data is presented as cumulative time spent biting, scratching, and licking in phase I (0-10 min) and phase II (11-60 min).
One hour following delivery of either saline (control) or R9-NC into the dorsum of the hindpaw, formalin (20 μl of a 5% solution) was injected into the same hindpaw. No effect of R9-NC on phase I of the formalin assay was observed.

Ends that are not written are not given here.

As to `O=C(O)CCCC[C@@H]1SC[C@@H]2NC(=O)N[C@@H]21` [Biotin], the HTRF ratio result in the data set with GST-Mint1-PDZ1/2 protein [1] is listed as “less than 0.04”. Besides, the ALPHA signal result in the data set on GST-Mint1-PDZ1/2 protein [2] is given as “less than 1,500”.
Turning to “RRRRRRRRR [R9, peptide permeant motif, used as control peptide]”, the “average d2/d1 ratio (initial rates of FM1-43 destaining)” value in data set [3] is 0.55±0.15. Besides, in the data set with formalin response [4] (30 min before formalin, phase II 11-60 min), the “formalin induced phase II behaviors vs PBS” value is listed as “not significantly different”.
For RRRRRRRRRHSYHHPDQDHWC [R9-NC], in the data set with formalin response [5], the “side effect when injected in the hindpaw” value is “no untoward side effect”.
As for “RRRRRRRRRQDHWC [R9-QDHWC, RRRRRRRRRQDHWC]”, the “adverse effects of delivery of the peptide to rats” value with formalin response [4] is “no apparent adverse effects”.

For the origin of these results see patent US7829688B2, “Peptides of CaV2.2 that inhibit pain” (The Board of Regents of the University of Texas System, priority 2004, dated 2010).
